Ten molecules from patent US8399425B2, “Alleviating neuropathic pain with EETs and sEH inhibitors” (The Regents of the University of California, priority 2007, dated 2013) can be followed below.

Entries after “also recorded” stand apart in the source; their conditions may differ.

Series [1] concerns streptozocin induced neuropathic pain. Put plainly: von Frey test (mechanical allodynia) in streptozocin neuropathic rats. In kind it is in vivo, rat. Conditions: for neuropathic pain, von Frey test: streptozocin (50 mg/kg iv) rats, subcutaneous, dose and time response. The protocol: Male Sprague-Dawley rats weighing 250-300 grains were used. Animals were individually housed at UC Davis Animal Resource Facility under standard conditions with free access to food and water, and maintained for at least 1 week before the experiments. Pain was quantified using three tests, the hind paw withdrawal latency test, the mechanical hyperalgesia test and the mechanical allodynia test. All the experiments were performed during the daytime.
Rats were first trained to the experimental chamber in two separate sessions. On the day of the induction of neuropathy, the animals' basal response to all three tests were measured and then streptozocin (50 mg/kg) was administered intravenously. Animals were then followed over time for the development of neuropathic pain. An inhibitor of sEH was administered subcutaneously one week after the onset of pain symptoms. […] Compounds were formulated by dissolving them in ethanol and mixing with trans free oleic oil. At least six animals per group were used. The Von Frey test was conducted by stimulating the plantar surface of the rats' hind paw with a calibrated filament connected to a force transducer. As this filament is applied the amount of force exerted on the paw increases and the animal withdraws its paw when the force reaches its threshold. […] In the Randal-Selitto test a similar principle is used. The animals' hind paw is placed between a flat surface and a pointed tip of a force transducer. The pointed tip exerts force on the dorsal face of the paw. […] The two tests are complementary, but depend on the activity of different groups of nociceptors.
Treatments and behavioral nociceptive tests. […] Following baseline measurements, rats were first treated with 200 μl of vehicle or compound-formulated cream by topical application to one hindpaw, LPS ([…] in 50 μl 0.9% NaCl) was injected into the plantar surface of the treated paw. For subcutaneous administration, compounds were injected immediately after intraplantar LPS. […] A probe fitted with a filament that is connected to a force transducer was applied to the plantar hind paw surface through a wire-mesh platform until eliciting a withdrawal reflex. The duration of heat application or the force (gr) necessary to elicit a withdrawal was designated as TWL and MWT. The steroidogenesis inhibitors were applied 2 hours before sEHI and LPS administration. Diabetes was induced by intravenous injection of 50 mg/kg streptozocin (STZ) in saline following baseline measurements. Diabetic animals were tested at least one week after STZ administration. Three measurements were taken from each animal at each time point and average responses were converted to percent analgesia index based on each animals' baseline response.

Series [2] addresses T1, TSPO (Rattus norvegicus, UniProt P16257).
T1 construct: rat heart mitochondria was isolated and incubated with; tissue CEREP (France); host or cells: rat heart mitochondria
In words: [3H] PK 11195 radioligand displacement from TSPO, rat heart mitochondria. Conditions: individual regioisomers compared with the mixture. In kind it is binding. The procedure: Binding studies. Radioligand binding studies were conducted by CEREP (France) according to standard procedures as described by LeFur. Briefly, rat heart mitochondria was isolated and incubated with [^3H] PK11195 at 30° C. in the presence of increasing concentrations of EET-me analogues or EET free acids. Reaction mixture was passed through glass wool filters washed 3 times using cold binding buffer and dried by air. Filter were than counted and IC50 values were calculated.
(In general: Displacement assays read how much labelled ligand stays bound in the presence of the test substance.)

The test system of series [3] is StAR mRNA. In words: StAR mRNA expression in spinal cord and brain (qRT-PCR). In kind it is in vivo, rat. Conditions: for StAR expression in spinal cord and brain: intrathecal, alone, within 30 minutes. The procedure:
Blood samples for chemical analysis were collected by cardiac puncture under deep isoflurane anesthesia. Plasma was immediately separated by centrifuging at 4000 rpm for 10 minutes in a cold centrifuge. Rats were then decapitated under anesthesia and tissues were removed and flash frozen in liquid nitrogen. For sampling the brain after decapitation, the scalp was first removed providing accessibility to the cranial plates. A midline incision was introduced to detach the cranial plates and brain was carefully exposed by peeling the plates. The brain was removed from the skull using a spatula, immediately placed in liquid nitrogen, and stored at −80° C. The prefrontal area was removed by a coronal cut to the distal one third of the brain from the frozen tissue. The cerebellum was also removed and the brain was hemisected. […] Plasma hormone levels were quantified using RIA. For quantitative RT-PCR, standard procedures were followed.

Series [4] deals with LPS induced hyperalgesia. Put plainly: intraplantar LPS inflammatory pain, thermal hindpaw withdrawal latency. In kind it is in vivo, rat. Conditions: for inflammatory pain related behavior: LPS inflammation; for analgesic activity of AEPU on co-administration: 10 mg/kg dermal, co-administered with AEPU. The procedure: Treatments and behavioral nociceptive tests. Behavioral nociceptive testing was conducted by assessing thermal hindpaw withdrawal latencies (TWL) using a commercial Hargreaves (Hargreaves et. al […]) apparatus (IITC, Woodland Hills, Calif.), or by determining mechanical hindpaw withdrawal thresholds (MWT) using an electronic von Frey anesthesiometer (IITC, Woodland. Hills, Calif.). For […] determination, a maximum stimulus duration of 22 s was imposed to prevent tissue damage. Following baseline measurements, rats were first treated with 200 μl of vehicle or compound-formulated cream by topical application to one hindpaw, LPS ([…] in 50 μl 0.9% NaCl) was injected into the plantar surface of the treated paw. For subcutaneous administration, compounds were injected immediately after intraplantar LPS. Animals were then placed in acrylic chambers on a glass platform maintained at a temperature of 30±1° C. for measurement or on a wire-mesh platform for MWT measurements. A probe fitted with a filament that is connected to a force transducer was applied to the plantar hind paw surface through a wire-mesh platform until eliciting a withdrawal reflex. The duration of heat application or the force (gr) necessary to elicit a withdrawal was designated as TWL and MWT. The steroidogenesis inhibitors were applied 2 hours before sEHI and LPS administration. Diabetes was induced by intravenous injection of 50 mg/kg streptozocin (STZ) in saline following baseline measurements. Diabetic animals were tested at least one week after STZ administration. Three measurements were taken from each animal at each time point and average responses were converted to percent analgesia index based on each animals' baseline response.

Series [5] has as its system ICER. Put plainly: ICER expression in spinal cord. To be noted: LPS. In kind it is in vivo, rat. The procedure:
Blood samples for chemical analysis were collected by cardiac puncture under deep isoflurane anesthesia. Plasma was immediately separated by centrifuging at 4000 rpm for 10 minutes in a cold centrifuge. Rats were then decapitated under anesthesia and tissues were removed and flash frozen in liquid nitrogen. For sampling the brain after decapitation, the scalp was first removed providing accessibility to the cranial plates. A midline incision was introduced to detach the cranial plates and brain was carefully exposed by peeling the plates. The brain was removed from the skull using a spatula, immediately placed in liquid nitrogen, and stored at −80° C. The prefrontal area was removed by a coronal cut to the distal one third of the brain from the frozen tissue. The cerebellum was also removed and the brain was hemisected. Saggital slices with a thickness of 2 mm and weighing 100-200 mg were cut from both hemispheres lateral to the thalamus and stored to be used for qRT-PCR or chemical analysis. Plasma hormone levels were quantified using RIA. For quantitative RT-PCR, standard procedures were followed.

The subject of series [6] is streptozocin induced neuropathic pain. Put plainly: mechanical hyperalgesia test (Randal-Selitto) in streptozocin neuropathic rats. In kind it is in vivo, rat. The procedure:
Male Sprague-Dawley rats weighing 250-300 grains were used. Animals were individually housed at UC Davis Animal Resource Facility under standard conditions with free access to food and water, and maintained for at least 1 week before the experiments. Pain was quantified using three tests, the hind paw withdrawal latency test, the mechanical hyperalgesia test and the mechanical allodynia test. All the experiments were performed during the daytime. Rats were first trained to the experimental chamber in two separate sessions. On the day of the induction of neuropathy, the animals' basal response to all three tests were measured and then streptozocin (50 mg/kg) was administered intravenously. Animals were then followed over time for the development of neuropathic pain. An inhibitor of sEH was administered subcutaneously one week after the onset of pain symptoms. […] Pain response was measured at 60, 120, 240 and 480 minutes after the administration of the sEHI. Compounds were formulated by dissolving them in ethanol and mixing with trans free oleic oil. At least six animals per group were used. The Von Frey test was conducted by stimulating the plantar surface of the rats' hind paw with a calibrated filament connected to a force transducer. As this filament is applied the amount of force exerted on the paw increases and the animal withdraws its paw when the force reaches its threshold. […] In the Randal-Selitto test a similar principle is used. The animals' hind paw is placed between a flat surface and a pointed tip of a force transducer. The pointed tip exerts force on the dorsal face of the paw. […] The two tests are complementary, but depend on the activity of different groups of nociceptors.

For series [7], the system named is COX-2 mRNA. Put plainly: spinal COX-2 mRNA after intraplantar LPS. In kind it is in vivo, rat. To be noted: spinal cord.

Turning to `O=C(NC12CC3CC(CC(C3)C1)C2)N[C@H]1CC[C@H](Oc2ccc(C(=O)O)cc2)CC1` (relative stereo) [t-AUCB, trans-4-[4-(3-adamantan-1-yl-ureido)-cyclohexyloxy]-benzoic acid], the “neuropathic pain, von Frey test” value in series [1] was “reduced and at higher doses eliminated”.
Take `CCCCC/C=C\C/C=C\C/C=C\CC1OC1CCCC(=O)OC` (centres unmarked) [5,6-EET-me]: in series [2], the “activity on TSPO” value was “less potent than the mixture were active and more efficacious”.
Same read-out and setting: with `CCCCC/C=C\C/C=C\CC1OC1C/C=C\CCCC(=O)OC` (centres unmarked) [8,9-EET-me] the entry was “completely lacked activity”.
Turning to `Nc1ncnc2c1nc(Br)n2[C@@H]1O[C@@H]2COP(=O)(O)O[C@H]2[C@H]1O` [8-Br cAMP, reference compound], the “StAR expression in spinal cord and brain” value in series [3] is recorded as “did not change”.
As to `CCCCCC1OC1C/C=C\C/C=C\C/C=C\CCCC(=O)OC` (centres unmarked) [14,15-EET-me], the “activity on TSPO” value in series [2] is “less potent than the mixture were active and more efficacious”.
In the case of `CCOCCOCCOCCCCCNC(=O)NC12CC3CC(CC(C3)C1)C2` [AEPU, Adamantan-1-yl-3-{5-[2-(2-ethoxyethoxy)ethoxy]pentyl}urea], the “paw withdrawal latency in response to a mild heat stimulus” value in series [4] (50 mg/kg dermally, intraplantar LPS) is given as “transiently increased the paw withdrawal latency”. The “inflammatory pain related behavior” value in series [4] is “had a transient effect on pain however remained analgesic”. Further, the entries for the “StAR message in the brain” value in series [3] (compound alone) and in series [3] (inflamed animals treated with compound) were “neither local inflammation nor AEPU alone elicited an increase” and “two fold increase”, respectively. Further, in series [3] (intrathecal with 8-Br cAMP (100 μg), 30 min), the “StAR mRNA in the brain” value is given as “elicited a parallel increase in the brain”. Also, in series [3] (intrathecal with 8-Br cAMP (100 μg), 30 min, EETs 5 μg, AEPU 1 μg), the “StAR expression in the spinal cord” value was “increased the expression level of StAR in the spinal cord”. For the same molecule, the “StAR expression in spinal cord and brain” value in series [3] was “did not change”. In series [5], the “increase in ICER message” value is “up to 3 fold”.
For `O=C(O)CCCCCCCCCCCNC(=O)NC12CC3CC(CC(C3)C1)C2` [AUDA, 12-(3-Adamantan-1-yl-ureido)dodecanoic acid], the “decrease in withdrawal threshold” value in series [1] (moderate dose) is reported as “completely reversed the decrease in withdrawal threshold”. Also, the “pain scores of diabetic rats” value in series [1] (neuropathic pain model) was “dose and time dependent improvement in pain scores”. Moreover, in series [1] (rat, in vivo), the duration of effect entry was “lost its effect after four hours”. Further, in series [1], the “neuropathic pain, von Frey test” value is “reduced neuropathic pain in a dose and time dependant manner”. For the same molecule, in series [6] (10, 20 and 50 mg/kg), the “pain, mechanical hyperalgesia test (FIG. 3)” value was “reduced pain in a time and dose dependant”. Moreover, the “mechanical allodynia induced by diabetic neuropathy (FIG. 3 legend)” value in series [6] (compound 1010 at equivalent dose) is “reversed”.
Regarding `CC(=O)N1CCC(NC(=O)Nc2ccc(OC(F)(F)F)cc2)CC1` [TPAU], in series [1], the “neuropathic pain, von Frey test” value was “reduced and at higher doses eliminated”. In addition, the “analgesic potency compared with morphine” value in series [4] (10 mg/kg vs morphine 1 mg/kg) is listed as “potency strikingly comparable to that of a moderate dose of morphine”. Besides, in series [4], the “inflammatory pain related behavior” value was “particularly more effective; also recorded: substantially reduced hyperalgesia”. For the same molecule, the “response to stimuli, motor activity” value in series [4] (treated animals) was “no reduction in response to stimuli or gross signs of loss of motor activity”. Further, the “spinal COX-2 mRNA increase” value in series [7] is “particularly more effective”.
Regarding `CCC1(c2ccc(N)cc2)CCC(=O)NC1=O` (centres unmarked) [aminoglutethimide, reference compound], the “analgesic activity of AEPU on co-administration” value in series [4] was “completely abolished”.
On the same count and under the same terms, with `CC(C)(C)NC(=O)[C@H]1CC[C@H]2[C@@H]3CC[C@H]4NC(=O)C=C[C@]4(C)[C@H]3CC[C@]12C` [finasteride, reference compound] the entry was “completely abolished”.
